From US20240158446A1, “CYCLIC COMPOUND HAVING SELECTIVE INHIBITORY ACTION ON KRAS OVER HRAS AND NRAS” (CHUGAI SEIYAKU KABUSHIKI KAISHA, priority 2021, published 2024)
Where a SMILES comes first, the peptide text is derived from it. Bridges are numbered along the chain shown (N, C = ends). [ ]: non-standard residue; d: D form. The star is where a group is joined. hPhe(3-Cl-4-CF3) = N[C@@H](CCc1ccc(C(F)(F)F)c(Cl)c1)C(=O)O; NPrPhe(4-CF3) = CCCN[C@@H](Cc1ccc(C(F)(F)F)cc1)C(=O)O; NMeGly(cPent) = CN[C@H](C(=O)O)C1CCCC1; NMeD = CN[C@@H](CC(=O)O)C(=O)O; NMeL = CN[C@@H](CC(C)C)C(=O)O; Morpholide = C1CN(*)CCO1; Ac5c = NC1(C(=O)O)CCCC1; Sar = CNCC(=O)O

What was measured:
[1] = biological target: GDP-bound NRAS wild-type protein (Homo sapiens, UniProt P01111); test: Binding to NRAS by surface plasmon resonance (SPR), Single Cycle Kinetics; settings: ratio of KD for GDP-bound NRAS wild-type protein to KD for KRAS, SPR
GDP-bound NRAS wild-type protein, sequence (P01111 whole entry): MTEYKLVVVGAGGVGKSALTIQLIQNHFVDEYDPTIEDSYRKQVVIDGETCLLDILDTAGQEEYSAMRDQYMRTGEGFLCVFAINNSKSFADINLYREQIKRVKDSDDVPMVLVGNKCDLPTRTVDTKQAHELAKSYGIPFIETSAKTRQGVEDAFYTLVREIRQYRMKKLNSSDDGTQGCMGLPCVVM

[2] = biological target: GDP-bound HRAS wild-type protein (Homo sapiens, UniProt P01112); test: Binding to HRAS by surface plasmon resonance (SPR), Single Cycle Kinetics; settings: ratio of KD for GDP-bound HRAS wild-type protein to KD for KRAS, SPR
GDP-bound HRAS wild-type protein, sequence (P01112 whole entry): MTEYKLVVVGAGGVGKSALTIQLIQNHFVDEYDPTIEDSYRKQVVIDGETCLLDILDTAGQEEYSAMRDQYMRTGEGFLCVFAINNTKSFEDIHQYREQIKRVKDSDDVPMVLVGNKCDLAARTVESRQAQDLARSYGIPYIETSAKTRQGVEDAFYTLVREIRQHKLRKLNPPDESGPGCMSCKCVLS

[3] = system: human lung cancer strain NCI-H441; test: cells; settings: NCI-H441, 96 h, read-out: NCI-H441 IC50 (nM), NCI-H441 cell proliferation, 4 days, CellTiter-Glo;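 note: cell proliferation inhibition after four days measured by CellTiter-Glo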

IC50 [3] | Structure (SMILES) | NRAS/KRAS (KD ratio) [1] | HRAS/KRAS (KD ratio) [2]
9.7 nM | CCO[C@@H]1C[C@H]2C(=O)NC3(CCC3)C(=O)N(C)[C@@H](C3CCCC3)C(=O)N(C)[C@H](C(=O)N(C)CC)CC(=O)N(C)[C@@H](CC(C)C)C(=O)N[C@@H]([C@@H](C)CC)C(=O)N(C)CC(=O)N(C)[C@H]3C/C=C\CCN(C3=O)[C@@H](Cc3ccc(C)cc3)C(=O)N(C)CC(=O)N[C@@H](CCc3ccc(C(F)(F)F)c(OC)c3)C(=O)N2C1 [PP1910] | A (a compound having 10 or more and less than 20 is denoted as A) | B (a compound having 3 or more and less than 10 is denoted as B)
6.7 nM | CC[C@H](C)[C@@H]1NC(=O)[C@H](CC)N(C)C(=O)C[C@@H](C(=O)N(C)C)N(C)C(=O)[C@H](C2CCCC2)N(C)C(=O)C2(CCC2)N(C)C(=O)[C@@H]2CCCN2C(=O)[C@H](CCc2cc(F)c(C(F)(F)F)c(F)c2)NC(=O)CN(C)C(=O)[C@H](Cc2ccc(C)cc2)N2CC/C=C\C[C@@H](C2=O)N(C)C(=O)CN(C)C1=O [PP1782] | A (a compound having 10 or more and less than 20 is denoted as A) | B (a compound having 3 or more and less than 10 is denoted as B)
6.8 nM | CCO[C@@H]1C[C@H]2C(=O)NC(C)(C)C(=O)N(C)[C@@H](C3CCCC3)C(=O)N(C)[C@H](C(=O)N(C)CC)CC(=O)N(C)[C@@H](CC(C)C)C(=O)N[C@@H]([C@@H](C)CC)C(=O)N(C)CC(=O)N(C)[C@H]3C/C=C\CCN(C3=O)[C@@H](Cc3ccc(C(F)(F)F)cc3)C(=O)N(C)CC(=O)N[C@@H](CCc3cc(F)c(C(F)(F)F)c(F)c3)C(=O)N2C1 [PP1937] | A (a compound having 10 or more and less than 20 is denoted as A) | A (a compound having 10 or more and less than 20 is denoted as A)
1.1 nM | CCCC[C@H]1C(=O)N[C@@H]([C@@H](C)CC)C(=O)N(C)CC(=O)N(C)[C@H]2C/C=C\CCN(C2=O)[C@@H](Cc2ccc(C(F)(F)F)cc2)C(=O)N(C)CC(=O)N[C@@H](CCc2cc(F)c(C(F)(F)F)c(F)c2)C(=O)N2C[C@H](F)C[C@H]2C(=O)NC2(CC(C)(C)C2)C(=O)N(C)[C@@H](C2CCCC2)C(=O)N(C)[C@H](C(=O)N(C)C)CC(=O)N1C [PP1693] | AA (a compound having 20 or more is denoted as AA) | A (a compound having 10 or more and less than 20 is denoted as A)
5.3 nM | CC[C@H](C)[C@@H]1NC(=O)[C@H](CC2CC2)N(C)C(=O)C[C@@H](C(=O)N(C)C)N(C)C(=O)[C@H](C2CCCC2)N(C)C(=O)C2(CCC2)N(C)C(=O)[C@@H]2CCCN2C(=O)[C@H](CCc2cc(F)c(C(F)(F)F)c(F)c2)NC(=O)CN(C)C(=O)[C@H](Cc2ccc(C)cc2)N2CC/C=C\C[C@@H](C2=O)N(C)C(=O)CN(C)C1=O [PP1796] | A (a compound having 10 or more and less than 20 is denoted as A) | B (a compound having 3 or more and less than 10 is denoted as B)
4.5 nM | CCO[C@@H]1C[C@H]2C(=O)NC3(CCC3)C(=O)N(C)[C@@H](C3CCCC3)C(=O)N(C)[C@H](C(=O)N(C)CC)CC(=O)N(C)[C@@H](C(C)C)C(=O)N[C@@H]([C@@H](C)CC)C(=O)N(C)CC(=O)N(C)[C@H]3C/C=C\CCN(C3=O)[C@@H](Cc3ccc(C(F)(F)F)cc3)C(=O)N(C)CC(=O)N[C@@H](CCc3ccc(C(F)(F)F)c(OC)c3)C(=O)N2C1 [PP2019] |  | 
12.5 nM | CC[C@H](C)[C@@H]1NC(=O)[C@H](CC2CC2)N(C)C(=O)C[C@@H](C(=O)N(C)CC)N(C)C(=O)[C@H](C2CCCC2)N(C)C(=O)C2(CC(C)(C)C2)NC(=O)[C@@H]2C[C@@H](C)CN2C(=O)[C@H](CCc2ccc(C(F)(F)F)c(OC)c2)NC(=O)CN(C)C(=O)[C@H](Cc2ccc(C)cc2)N2CC/C=C\C[C@@H](C2=O)N(C)C(=O)CN(C)C1=O [PP1902] | A (a compound having 10 or more and less than 20 is denoted as A) | A (a compound having 10 or more and less than 20 is denoted as A)
22.2 nM | CCC[C@H]1C(=O)N[C@@H]([C@@H](C)CC)C(=O)N(C)CC(=O)N(C)[C@H]2C/C=C\CCN(C2=O)[C@@H](Cc2ccc(C)cc2)C(=O)N(C)CC(=O)N[C@@H](CCc2cc(F)c(C(F)(F)F)c(F)c2)C(=O)N2C[C@H](C)C[C@H]2C(=O)NC2(CCC2)C(=O)N(C)[C@@H](C2CCCC2)C(=O)N(C)[C@H](C(=O)N(C)CC)CC(=O)N1C [PP1862] | A (a compound having 10 or more and less than 20 is denoted as A) | A (a compound having 10 or more and less than 20 is denoted as A)
17.7 nM | CCCN(C)C(=O)[C@@H]1CC(=O)N(C)[C@@H](CC(F)F)C(=O)N[C@@H]([C@@H](C)CC)C(=O)N(C)CC(=O)N(C)[C@H]2C/C=C\CCN(C2=O)[C@@H](Cc2ccc(C(F)(F)F)cc2)C(=O)N(C)CC(=O)N[C@@H](CCc2cc(F)c(C(F)(F)F)c(F)c2)C(=O)N2C[C@@H](C)C[C@H]2C(=O)NC2(CCC2)C(=O)N(C)[C@@H](C2CCCC2)C(=O)N1C [PP2000] | A (a compound having 10 or more and less than 20 is denoted as A) | B (a compound having 3 or more and less than 10 is denoted as B)
30.4 nM | CC[C@H](C)[C@@H]1NC(=O)[C@H](CC)N(C)C(=O)C[C@@H](C(=O)N(C)CC)N(C)C(=O)[C@H](C2CCCC2)N(C)C(=O)C2(CCC2)NC(=O)[C@@H]2C[C@H](C)CN2C(=O)[C@H](CCc2ccc(C(F)(F)F)c(OC)c2)NC(=O)CN(C)C(=O)[C@H](Cc2ccc(C)cc2)N2CC/C=C\C[C@@H](C2=O)N(C)C(=O)CN(C)C1=O [PP1853] |  | 
5.5 nM | CCO[C@@H]1C[C@H]2C(=O)NC3(CC(C)(C)C3)C(=O)N(C)[C@@H](C3CCCC3)C(=O)N(C)[C@H](C(=O)N(C)C)CC(=O)N(C)[C@@H](CC3CC3)C(=O)N[C@@H]([C@@H](C)CC)C(=O)N(C)CC(=O)N(C)[C@H]3C/C=C\CCN(C3=O)[C@@H](Cc3ccc(C)cc3)C(=O)N(C)CC(=O)N[C@@H](CCc3ccc(C(F)(F)F)c(OC)c3)C(=O)N2C1 [PP1903] | A (a compound having 10 or more and less than 20 is denoted as A) | B (a compound having 3 or more and less than 10 is denoted as B)
17.5 nM | CCCOC[C@H]1C(=O)N[C@@H]([C@@H](C)CC)C(=O)N(C)CC(=O)N(C)[C@H]2C/C=C\CCN(C2=O)[C@@H](Cc2ccc(C(F)(F)F)cc2)C(=O)N(C)CC(=O)N[C@@H](CCc2ccc(C(F)(F)F)c(OC)c2)C(=O)N2C[C@@H](C)C[C@H]2C(=O)NC2(CCC2)C(=O)N(C)[C@@H](C2CCCC2)C(=O)N(C)[C@H](C(=O)N(C)CCC)CC(=O)N1C [PP2028] | A (a compound having 10 or more and less than 20 is denoted as A) | B (a compound having 3 or more and less than 10 is denoted as B)
39.7 nM | CCCN1C(=O)CN(C)C(=O)CN(C)C(=O)[C@H]([C@@H](C)CC)NC(=O)[C@H](CC(C)C)N(C)C(=O)C[C@@H](C(=O)N2CCOCC2)N(C)C(=O)[C@H](C2CCCC2)N(C)C(=O)C2(CCCC2)NC(=O)[C@H](C)NC(=O)[C@H](CCc2ccc(C(F)(F)F)c(Cl)c2)NC(=O)CN(C)C(=O)[C@@H]1Cc1ccc(C(F)(F)F)cc1 [PP1914] ([NMeL]I[Sar][Sar][NPrPhe(4-CF3)][Sar][hPhe(3-Cl-4-CF3)]A[Ac5c][NMeGly(cPent)][NMeD]-Morpholide; lactam N-11) |  | 
17.3 nM | CC[C@H](C)[C@@H]1NC(=O)[C@H](CC)N(C)C(=O)C[C@@H](C(=O)N(C)CC)N(C)C(=O)[C@H](C2CCCC2)N(C)C(=O)C2(CC(C)(C)C2)NC(=O)[C@@H]2C[C@@H](C)CN2C(=O)[C@H](CCc2cc(F)c(C(F)(F)F)c(F)c2)NC(=O)CN(C)C(=O)[C@H](Cc2ccc(C)cc2)N2CC/C=C\C[C@@H](C2=O)N(C)C(=O)CN(C)C1=O [PP1884] |  | 
11.8 nM | CCCN(C)C(=O)[C@@H]1CC(=O)N(C)[C@@H](CCOC)C(=O)N[C@@H]([C@@H](C)CC)C(=O)N(C)CC(=O)N(C)[C@H]2C/C=C\CCN(C2=O)[C@@H](Cc2ccc(C(F)(F)F)cc2)C(=O)N(C)CC(=O)N[C@@H](CCc2cc(F)c(C(F)(F)F)c(F)c2)C(=O)N2C[C@H](OCC)C[C@H]2C(=O)NC2(CC(C)(C)C2)C(=O)N(C)[C@@H](C2CCCC2)C(=O)N1C [PP2033] |  | 
49.1 nM | CCC[C@H]1C(=O)N[C@@H]([C@@H](C)CC)C(=O)N(C)CC(=O)N(C)[C@H]2C/C=C\CCN(C2=O)[C@@H](Cc2ccc(C)cc2)C(=O)N(C)CC(=O)N[C@@H](CCc2ccc(C(F)(F)F)c(Cl)c2)C(=O)N2C[C@H](C)C[C@H]2C(=O)NC2(CCC2)C(=O)N(C)[C@@H](C2CCCC2)C(=O)N(C)[C@H](C(=O)N(C)CC)CC(=O)N1C [PP1850] |  | 
18.4 nM | CC[C@H](C)[C@@H]1NC(=O)[C@H](CC(F)F)N(C)C(=O)C[C@@H](C(=O)N(C)C)N(C)C(=O)[C@H](C2CCCC2)N(C)C(=O)C2(CC(C)(C)C2)NC(=O)[C@@H]2C[C@@H](C)CN2C(=O)[C@H](CCc2ccc(C(F)(F)F)c(OC)c2)NC(=O)CN(C)C(=O)[C@H](Cc2ccc(C)cc2)N2CC/C=C\C[C@@H](C2=O)N(C)C(=O)CN(C)C1=O [PP1877] |  | 
22.6 nM | CC[C@H](C)[C@@H]1NC(=O)[C@H](CC2CC2)N(C)C(=O)C[C@@H](C(=O)N(C)CC)N(C)C(=O)[C@H](C2CCCC2)N(C)C(=O)C2(CCC2)NC(=O)[C@@H]2C[C@H](C)CN2C(=O)[C@H](CCc2ccc(C(F)(F)F)c(OC)c2)NC(=O)CN(C)C(=O)[C@H](Cc2ccc(C)cc2)N2CC/C=C\C[C@@H](C2=O)N(C)C(=O)CN(C)C1=O [PP1897] |  | 
15.7 nM | CCCN(C)C(=O)[C@@H]1CC(=O)N(C)[C@@H](COCC)C(=O)N[C@@H]([C@@H](C)CC)C(=O)N(C)CC(=O)N(C)[C@H]2C/C=C\CCN(C2=O)[C@@H](Cc2ccc(C(F)(F)F)cc2)C(=O)N(C)CC(=O)N[C@@H](CCc2cc(F)c(C(F)(F)F)c(F)c2)C(=O)N2C[C@@H](C)C[C@H]2C(=O)NC2(CCC2)C(=O)N(C)[C@@H](C2CCCC2)C(=O)N1C [PP2002] |  | 
